Measurements taken from US20080096894A1, “Anti-Bacterial Compounds” (ASTON UNIVERSITY, priority 2005, published 2008).
In brackets after ≈: the same amount, converted by molar mass. Like-named read-outs stand apart in the source and are kept apart here.

Key:
Experiment in all cases: MIC, agar dilution, multipoint inoculator
E. faecalis = format: cell-based; settings: upper value of MIC reading
Procedure, shortened: (§1)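 Read-out is the MIC by agar dilution. Plates contain Mueller Hinton agar; bacteria are applied via multipoint inoculator, 10^4 CFU per spot.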

B. bronchiseptica = format: cell-based; settings: B. bronchiseptica NCTC 8344, upper value of MIC reading
Procedure, shortened: as §1

S. maltophilia = format: cell-based; settings: S. maltophilia NCTC 10257, upper value of MIC reading
Procedure, shortened: as §1

S. haemolyticus = format: cell-based; settings: S. haemolyticus Isolate 1, upper value of MIC reading
Procedure, shortened: as §1

S. aboni = format: cell-based; settings: S. aboni NCTC 6017; upper value of MIC reading
Procedure, shortened: as §1

P. auriginosa = format: cell-based, Pseudomonas aeruginosa; settings: P. auriginosa NCTC 6749, upper value of MIC reading
Method: (§2) This activity was measured using a multipoint inoculator method as follows. The MIC for each compound was measured using an agar dilution method (Onda, H., et al., Int. J. Antimicrob. Agents. 18, 263 (2001)) (Mueller Hinton agar) by means of a multipoint inoculator delivering 10^4 colony forming units per spot.

K. pneumoniae = format: cell-based, Klebsiella pneumoniae; settings: K. pneumoniae 327, upper value of MIC reading
Method: as §2

E. cloacae = format: cell-based, Enterobacter cloacae; settings: E. cloacae NCTC 11582, upper value of MIC reading
Method: as §2

MRSA = format: cell-based, methicillin-resistant Staphylococcus aureus; settings: for MIC: upper value of MIC reading
Procedure, shortened: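 Agar dilution MIC on Mueller Hinton agar, multipoint inoculator delivering 10^4 colony forming units per spot. MRSA values are ranges across ten clinical MRSA strains; S. aureus NCTC 6571 as reference strain.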

S. epidemisis = format: cell-based, Staphylococcus epidermidis; settings: upper value of MIC reading
Procedure, shortened: as §1

S. marcesens = format: cell-based, Serratia marcescens; settings: Serratia marcescens, 18 h; S. marcesens 4444; upper value of MIC reading; read-out: MIC
Method: as §2

S. aureus = format: cell-based, Staphylococcus aureus; settings: upper value of MIC reading
Procedure, shortened: as §1

E. faecium = format: cell-based, Enterococcus faecium; settings: Enterococcus faecium, upper value of MIC reading, read-out: MIC
Procedure, shortened: as §1

E. coli = format: cell-based, Escherichia coli; settings: Escherichia coli, 18 h, upper value of MIC reading
Method: as §2

CC1(C)S[C@@H]2[C@H](NC(=O)[C@H](N)c3ccccc3)C(=O)N2[C@H]1C(=O)O [Amp., Ampicillin, reference compound]
MIC (E. faecalis; Enterococcus faecalis, 18 h, E. faecalis EBH1, read-out: MIC): 0.05 µg/mL (≈ 0.143 µM)
MIC (E. faecalis; Enterococcus faecalis, 18 h, E. faecalis Isolate 1, read-out: MIC): 0.05 µg/mL (≈ 0.143 µM)
MIC (E. faecalis; Enterococcus faecalis, 18 h, E. faecalis Isolate 2, read-out: MIC): 0.05 µg/mL (≈ 0.143 µM)
MIC (E. faecalis; Enterococcus faecalis, 18 h, E. faecalis Isolate 3, read-out: MIC): 0.05 µg/mL (≈ 0.143 µM)
MIC (E. faecalis; Enterococcus faecalis, 18 h, E. faecalis Isolate 4, read-out: MIC): 2 µg/mL (≈ 5.72 µM)
MIC (E. faecalis; Enterococcus faecalis, 18 h, E. faecalis Isolate 5, read-out: MIC): 2 µg/mL (≈ 5.72 µM)
MIC (E. faecalis; Enterococcus faecalis, NCTC5957, 18 h, E. faecalis NCTC 5957, read-out: MIC): 2 µg/mL (≈ 5.72 µM)
MIC (B. bronchiseptica; Bordetella bronchiseptica, NCTC8344, 18 h, read-out: MIC): 1 µg/mL (≈ 2.86 µM)
MIC (S. maltophilia; Stenotrophomonas maltophilia, NCTC10257, 18 h, read-out: MIC): 16 µg/mL (≈ 45.8 µM)
MIC (S. haemolyticus; Staphylococcus haemolyticus, 18 h, read-out: MIC): 1 µg/mL (≈ 2.86 µM)
MIC (S. aboni): 0.05 µg/mL (≈ 0.143 µM)
MIC (P. auriginosa; Pseudomonas aeruginosa, NCTC6749, 18 h, read-out: MIC): 16 µg/mL (≈ 45.8 µM)
MIC (K. pneumoniae; Klebsiella pneumoniae, 18 h, read-out: MIC): > 16 µg/mL
MIC (E. cloacae; Enterobacter cloacae, NCTC11582, 18 h, read-out: MIC): 16 µg/mL (≈ 45.8 µM)
MIC (MRSA; Staphylococcus aureus, 18 h, MRSA Isolate 1, read-out: MIC): 0.12 µg/mL (≈ 0.343 µM)
MIC (MRSA; Staphylococcus aureus, 18 h, MRSA Isolate 2, read-out: MIC): 8 µg/mL (≈ 22.9 µM)
MIC (MRSA; Staphylococcus aureus, 18 h, MRSA Isolate 3, read-out: MIC): 8 µg/mL (≈ 22.9 µM)
MIC (MRSA; Staphylococcus aureus, 18 h, MRSA Isolate 4, read-out: MIC): 8 µg/mL (≈ 22.9 µM)
MIC (MRSA; Staphylococcus aureus, 18 h, MRSA Isolate 5, read-out: MIC): 8 µg/mL (≈ 22.9 µM)
MIC (MRSA; Staphylococcus aureus, 18 h, MRSA Isolate 6, read-out: MIC): 8 µg/mL (≈ 22.9 µM)
MIC (MRSA; Staphylococcus aureus, 18 h, MRSA Isolate 7, read-out: MIC): 8 µg/mL (≈ 22.9 µM)
MIC (MRSA; Staphylococcus aureus, 18 h, MRSA Isolate 8, read-out: MIC): 8 µg/mL (≈ 22.9 µM)
MIC (MRSA; Staphylococcus aureus, 18 h, MRSA Isolate 9, read-out: MIC): 8 µg/mL (≈ 22.9 µM)
MIC (MRSA; Staphylococcus aureus, 18 h, MRSA Isolate 10, read-out: MIC): 8 µg/mL (≈ 22.9 µM)
MIC (S. epidemisis; Staphylococcus epidermidis, 18 h, S. epidemisis Isolate 1, read-out: MIC): 8 µg/mL (≈ 22.9 µM)
MIC (S. epidemisis; Staphylococcus epidermidis, NCTC11047, 18 h, S. epidemisis NCTC 11047, read-out: MIC): 4 µg/mL (≈ 11.4 µM)
MIC (S. marcesens): 8 µg/mL (≈ 22.9 µM)
MIC (S. aureus; Staphylococcus aureus, 18 h, S. aureus Cowan 1, read-out: MIC): 0.05 µg/mL (≈ 0.143 µM)
MIC (S. aureus; Staphylococcus aureus, NCTC6571, 18 h, S. aureus NCTC 6571, read-out: MIC): 0.05 µg/mL (≈ 0.143 µM)
MIC (S. aureus; Staphylococcus aureus, NCTC10788, 18 h, S. aureus NCTC 10788, read-out: MIC): 0.05 µg/mL (≈ 0.143 µM)
MIC (E. faecium; 18 h, E. faecium ACTCC 10541): 2 µg/mL (≈ 5.72 µM)
MIC (E. faecium; NCTC7171, 18 h, E. faecium NCTC 7171): 1 µg/mL (≈ 2.86 µM)
MIC (E. coli; E. coli W3110R+): > 16 µg/mL
MIC (E. coli; E. coli W3110R−): 1 µg/mL (≈ 2.86 µM)

NC(=NN=Cc1c(O)ccc2ccccc12)c1cccnc1 [Compound 3PYdb]
MIC (E. faecalis; E. faecalis Isolate 2): 256 µg/mL (≈ 882 µM)
MIC (E. faecalis; E. faecalis Isolate 5): 256 µg/mL (≈ 882 µM)
MIC (B. bronchiseptica): 256 µg/mL (≈ 882 µM)
MIC (S. maltophilia): 266 µg/mL (≈ 916 µM)
MIC (S. haemolyticus): 256 µg/mL (≈ 882 µM)
MIC (S. aboni): 32 µg/mL (≈ 110 µM)
MIC (P. auriginosa): 256 µg/mL (≈ 882 µM)
MIC (K. pneumoniae): 256 µg/mL (≈ 882 µM)
MIC (E. cloacae): 256 µg/mL (≈ 882 µM)
MIC (MRSA; MRSA Isolate 1, in µg/mL): 256
MIC (MRSA; MRSA Isolate 2, in µg/mL): 256
MIC (MRSA; MRSA Isolate 3, in µg/mL): 256
MIC (MRSA; MRSA Isolate 4, in µg/mL): 256
MIC (MRSA; MRSA Isolate 5, in µg/mL): 256
MIC (MRSA; MRSA Isolate 6, in µg/mL): 256
MIC (MRSA; MRSA Isolate 7, in µg/mL): 256
MIC (MRSA; MRSA Isolate 8, in µg/mL): 256
MIC (MRSA; MRSA Isolate 9, in µg/mL): 256
MIC (MRSA; MRSA Isolate 10, in µg/mL): 256
MRSA MIC range (MRSA; panel of ten MRSA strains (clinical isolates)): 128 to 256 µg/mL
MIC (S. epidemisis; S. epidemisis Isolate 1): 256 µg/mL (≈ 882 µM)
MIC (S. epidemisis; S. epidemisis NCTC 11047): 256 µg/mL (≈ 882 µM)
MIC (S. aureus; S. aureus Cowan 1): 256 µg/mL (≈ 882 µM)
MIC (S. aureus; S. aureus NCTC 6571): 256 µg/mL (≈ 882 µM)
MIC (S. aureus; S. aureus NCTC 10788): 256 µg/mL (≈ 882 µM)
